Ki data for two compounds are collected here from BindingDB's records for doi:10.1021/jm060561m (Purdue University, 2006).

This assay addresses T1, Dimer of Gag-Pol polyprotein [501-599,Q508K,L534I,L564I,C568A,C596A] (Human immunodeficiency virus 1, UniProt P03367, C568A/C596A/L534I/L564I/Q508K).
T1 construct: 501-599
As to the kind of experiment: Protease Inhibition Assay. As to conditions: pH 6.4; 25 °C. The protocol: The Ki values were determined by substrate cleavage assay using fluorogenic substrate, 2-(aminobenzoyl)-Thr-Ile-Nle-Phe(p-NO2)-Gln-Arg-NH2. A standard curve relating changes in fluorescent intensity to changes in concentration of product was used to convert fluorescent changes into molar velocities. The amount of cleavage was determined by HPLC.

`CC(C)CN(C[C@@H](O)[C@H](Cc1ccccc1)NC(=O)O[C@H]1C[C@H]2CCC[C@H]2C1)S(=O)(=O)c1ccc(CO)cc1` [(2R,3aR,6aS)-octahydropentalen-2-yl N-[(2S,3R)-3-hydroxy-4-{[4-(hydroxymethyl)benzene](2-methylpropyl)sulfonamido}-1-phenylbutan-2-yl]carbamate]: the Ki (usually a measure of affinity in units of concentration, obtained from inhibition or displacement) was determined as 5.3 nM. That is a single-digit nanomolar value.
The figure for `CC(C)CN(C[C@@H](O)[C@H](Cc1ccccc1)NC(=O)O[C@@H]1C[C@@H]2CCO[C@@H]2C1)S(=O)(=O)c1ccc(N)cc1` [(3aS,5R,6aR)-hexahydro-2H-cyclopenta[b]furan-5-yl N-[(2S,3R)-4-[(4-aminobenzene)(2-methylpropyl)sulfonamido]-3-hydroxy-1-phenylbutan-2-yl]carbamate] is 0.14 nM.
